#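 Five compound concentrations were applied to cells in 96-well plates for 48 hours; endpoints were derived by simple linear interpolation of the resulting dose-response curve. TGI marks complete inhibition of growth.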
# Legend:
# Assay in all cases: DTP human tumour cell line panel, 48 h
# [1] = test system: SN12C renal
# [2] = test system: MCF7 breast
# [3] = test system: NCI/ADR-RES ovarian
# [4] = test system: SNB-75 CNS
# [5] = test system: TK-10 renal
# [6] = test system: HL-60(TB) leukemia
# [7] = test system: UO-31 renal
# [8] = test system: T-47D breast
# [9] = test system: COLO 205 colon
# [10] = test system: LOX IMVI melanoma
# [11] = test system: SK-MEL-2 melanoma
# [12] = test system: SR leukemia
# [13] = test system: UACC-257 melanoma
# [14] = test system: SK-MEL-28 melanoma
# [15] = test system: SF-268 CNS
# [16] = test system: NCI-H23 lung
# [17] = test system: CAKI-1 renal
# [18] = test system: PC-3 prostate
# [19] = test system: OVCAR-5 ovarian
# [20] = test system: EKVX NSCLC
# [21] = test system: SNB-19 CNS
# [22] = test system: NCI-H460 lung
# [23] = test system: M14 melanoma
# [24] = test system: SW-620 colon
# [25] = test system: MDA-MB-435
# [26] = test system: OVCAR-4 ovarian
# [27] = test system: ACHN renal
# [28] = test system: MDA-MB-231 breast
# [29] = test system: U251 CNS
# [30] = test system: A549 NSCLC
# [31] = test system: HOP-62 NSCLC
# [32] = test system: SK-MEL-5 melanoma
# [33] = test system: HCC-2998 colon
# [34] = test system: SF-295 CNS
# [35] = test system: HT29 colon
# [36] = test system: MALME-3M melanoma
# [37] = test system: NCI-H522 lung
# [38] = test system: CCRF-CEM leukemia
# [39] = test system: SF-539 CNS
# [40] = test system: HOP-92 NSCLC
# [41] = test system: OVCAR-8 ovarian
# [42] = test system: HCT-15 colon
# [43] = test system: MDA-N
# [44] = test system: NCI-H226 lung
# [45] = test system: HCT-116 colon
# [46] = test system: MOLT-4 leukemia
# [47] = test system: IGROV1 ovarian
# [48] = test system: HS 578T breast
# [49] = test system: A498 renal
# [50] = test system: KM12 colon
# [51] = test system: DU-145 prostate
# [52] = test system: 786-0 renal
# [53] = test system: RPMI-8226 leukemia
# [54] = test system: K-562 leukemia
# [55] = test system: RXF 393 renal
# [56] = test system: UACC-62 melanoma
# [57] = test system: OVCAR-3 ovarian
# [58] = test system: SK-OV-3 ovarian
smiles,measurement,setting,value
CCN(CC)CCOc1ccc(N2C(=O)c3cccc4cc([N+](=O)[O-])cc(c34)C2=O)cc1,TGI,[1],40.9 µM
same,TGI,[2],23.5 µM
same,TGI,[3],60 µM
same,TGI,[4],35.1 µM
same,TGI,[5],26 µM
same,TGI,[6],28.2 µM
same,TGI,[7],21.7 µM
same,TGI,[8],39.3 µM
same,TGI,[9],64.2 µM
same,TGI,[10],20.4 µM
same,TGI,[11],33.7 µM
same,TGI,[12],32.8 µM
same,TGI,[13],27 µM
same,TGI,[14],25.3 µM
same,TGI,[15],27.1 µM
same,TGI,[16],26.5 µM
same,TGI,[17],26 µM
same,TGI,[18],35.2 µM
same,TGI,[19],20.9 µM
same,TGI,[20],35.4 µM
same,TGI,[21],30.3 µM
same,TGI,[22],15.5 µM
same,TGI,[23],25.3 µM
same,TGI,[24],25.8 µM
same,TGI,[25],26.6 µM
same,TGI,[26],31 µM
same,TGI,[27],15.9 µM
same,TGI,[28],37.6 µM
same,TGI,[29],22.6 µM
same,TGI,[30],19.8 µM
same,TGI,[31],15.4 µM
same,TGI,[32],26.6 µM
same,TGI,[33],25 µM
same,TGI,[34],21.1 µM
same,TGI,[35],18.3 µM
same,TGI,[36],26.9 µM
same,TGI,[37],19.7 µM
same,TGI,[38],30.8 µM
same,TGI,[39],25.1 µM
same,TGI,[40],44.1 µM
same,TGI,[41],34.5 µM
same,TGI,[42],26.1 µM
same,TGI,[43],30.3 µM
same,TGI,[44],19 µM
same,TGI,[45],20.5 µM
same,TGI,[46],11.3 µM
same,TGI,[47],22.3 µM
same,TGI,[48],42.5 µM
same,TGI,[49],25.4 µM
same,TGI,[50],64.5 µM
same,TGI,[51],24.3 µM
same,TGI,[52],18.3 µM
CC1CC(C)CC(NC2=NCCO2)C1 (configuration not stated),TGI,[1],> 100 µM
same,TGI,[2],> 100 µM
same,TGI,[3],> 100 µM
same,TGI,[5],> 100 µM
same,TGI,[6],> 100 µM
same,TGI,[7],> 100 µM
same,TGI,[8],> 100 µM
same,TGI,[9],> 100 µM
same,TGI,[10],> 100 µM
same,TGI,[11],> 100 µM
same,TGI,[12],> 100 µM
same,TGI,[13],> 100 µM
same,TGI,[14],> 100 µM
same,TGI,[15],> 100 µM
same,TGI,[16],> 100 µM
same,TGI,[17],> 100 µM
same,TGI,[18],> 100 µM
same,TGI,[19],> 100 µM
same,TGI,[20],> 100 µM
same,TGI,[21],> 100 µM
same,TGI,[22],> 100 µM
same,TGI,[23],> 100 µM
same,TGI,[24],> 100 µM
same,TGI,[25],> 100 µM
same,TGI,[26],> 100 µM
same,TGI,[27],> 100 µM
same,TGI,[53],> 100 µM
same,TGI,[28],> 100 µM
same,TGI,[54],> 100 µM
same,TGI,[29],> 100 µM
same,TGI,[30],> 100 µM
same,TGI,[31],> 100 µM
same,TGI,[32],> 100 µM
same,TGI,[33],> 100 µM
same,TGI,[34],> 100 µM
same,TGI,[35],> 100 µM
same,TGI,[36],> 100 µM
same,TGI,[37],> 100 µM
same,TGI,[38],> 100 µM
same,TGI,[55],> 100 µM
same,TGI,[39],> 100 µM
same,TGI,[40],> 100 µM
same,TGI,[41],> 100 µM
same,TGI,[42],> 100 µM
same,TGI,[43],> 100 µM
same,TGI,[44],> 100 µM
same,TGI,[45],> 100 µM
same,TGI,[46],> 100 µM
same,TGI,[56],> 100 µM
same,TGI,[47],> 100 µM
same,TGI,[48],> 100 µM
same,TGI,[49],> 100 µM
same,TGI,[50],> 100 µM
same,TGI,[51],> 100 µM
same,TGI,[52],> 100 µM
same,TGI,[57],> 100 µM
CCCC1C(CC)C(NC)C(C#N)(C#N)C1(C#N)C#N (configuration not stated),TGI,[1],34.5 µM
same,TGI,[2],> 100 µM
same,TGI,[3],59 µM
same,TGI,[4],22.5 µM
same,TGI,[5],34.6 µM
same,TGI,[6],91.8 µM
same,TGI,[7],30 µM
same,TGI,[8],29 µM
same,TGI,[9],26.6 µM
same,TGI,[10],36.1 µM
same,TGI,[11],35.7 µM
same,TGI,[12],82.3 µM
same,TGI,[13],33.3 µM
same,TGI,[14],94.3 µM
same,TGI,[15],34.3 µM
same,TGI,[16],46.8 µM
same,TGI,[17],25.9 µM
same,TGI,[18],39.9 µM
same,TGI,[19],> 100 µM
same,TGI,[20],87.6 µM
same,TGI,[21],48.5 µM
same,TGI,[23],> 100 µM
same,TGI,[24],> 100 µM
same,TGI,[25],> 100 µM
same,TGI,[26],> 100 µM
same,TGI,[27],43.1 µM
same,TGI,[53],43.8 µM
same,TGI,[28],30.1 µM
same,TGI,[54],> 100 µM
same,TGI,[29],95.1 µM
same,TGI,[30],> 100 µM
same,TGI,[31],29.2 µM
same,TGI,[32],24.5 µM
same,TGI,[58],> 100 µM
same,TGI,[33],32.9 µM
same,TGI,[34],41.9 µM
same,TGI,[35],27.6 µM
same,TGI,[36],63.8 µM
same,TGI,[37],33.3 µM
same,TGI,[38],> 100 µM
same,TGI,[55],28 µM
same,TGI,[39],34.8 µM
same,TGI,[40],32.2 µM
same,TGI,[41],58.9 µM
same,TGI,[42],28.7 µM
same,TGI,[43],36.1 µM
same,TGI,[44],35.4 µM
same,TGI,[45],30.1 µM
same,TGI,[46],76.9 µM
same,TGI,[56],39.2 µM
same,TGI,[47],33.4 µM
same,TGI,[48],> 100 µM
same,TGI,[49],31.9 µM
same,TGI,[50],30.9 µM
same,TGI,[51],27.2 µM
same,TGI,[52],34.3 µM
O=C1OCC=C1COC1OC(CO)C(O)C(O)C1O (configuration not stated),TGI,[1],> 100 µM
same,TGI,[2],> 100 µM
same,TGI,[3],> 100 µM
same,TGI,[4],> 100 µM
same,TGI,[5],> 100 µM
same,TGI,[6],> 100 µM
same,TGI,[7],> 100 µM
same,TGI,[8],> 100 µM
same,TGI,[9],> 100 µM
same,TGI,[10],> 100 µM
same,TGI,[11],> 100 µM
same,TGI,[12],> 100 µM
same,TGI,[13],> 100 µM
same,TGI,[14],> 100 µM
same,TGI,[15],> 100 µM
same,TGI,[16],> 100 µM
same,TGI,[17],> 100 µM
same,TGI,[18],> 100 µM
same,TGI,[19],> 100 µM
same,TGI,[20],> 100 µM
same,TGI,[21],> 100 µM
same,TGI,[22],> 100 µM
same,TGI,[23],> 100 µM
same,TGI,[24],> 100 µM
same,TGI,[25],> 100 µM
same,TGI,[26],> 100 µM
same,TGI,[27],> 100 µM
same,TGI,[53],> 100 µM
same,TGI,[28],> 100 µM
same,TGI,[54],> 100 µM
same,TGI,[29],> 100 µM
same,TGI,[30],> 100 µM
same,TGI,[31],> 100 µM
same,TGI,[32],> 100 µM
same,TGI,[58],> 100 µM
same,TGI,[33],> 100 µM
same,TGI,[34],> 100 µM
same,TGI,[35],> 100 µM
same,TGI,[36],> 100 µM
same,TGI,[37],39.3 µM
same,TGI,[38],> 100 µM
same,TGI,[55],> 100 µM
same,TGI,[39],> 100 µM
same,TGI,[40],> 100 µM
same,TGI,[41],> 100 µM
same,TGI,[42],> 100 µM
same,TGI,[43],> 100 µM
same,TGI,[44],> 100 µM
same,TGI,[45],> 100 µM
same,TGI,[46],> 100 µM
same,TGI,[47],> 100 µM
same,TGI,[48],> 100 µM
same,TGI,[49],> 100 µM
same,TGI,[50],> 100 µM
same,TGI,[51],> 100 µM
same,TGI,[52],> 100 µM
same,TGI,[57],> 100 µM
COc1cc(C=O)cc(/C=N/c2ccccn2)c1O,TGI,[1],88.8 µM
same,TGI,[2],> 100 µM
same,TGI,[3],> 100 µM
same,TGI,[4],16.3 µM
same,TGI,[5],> 100 µM
same,TGI,[6],83.3 µM
same,TGI,[7],14.1 µM
same,TGI,[8],> 100 µM
same,TGI,[9],29.5 µM
same,TGI,[10],30.9 µM
same,TGI,[11],10.5 µM
same,TGI,[12],34.5 µM
same,TGI,[13],55.3 µM
same,TGI,[14],21.9 µM
same,TGI,[15],19 µM
same,TGI,[16],> 100 µM
same,TGI,[17],9.76 µM
same,TGI,[18],25.6 µM
same,TGI,[19],> 100 µM
same,TGI,[20],> 100 µM
same,TGI,[21],> 100 µM
same,TGI,[22],42.7 µM
same,TGI,[23],62.2 µM
same,TGI,[24],> 100 µM
same,TGI,[25],41.4 µM
same,TGI,[26],> 100 µM
same,TGI,[27],6.97 µM
same,TGI,[53],51.9 µM
same,TGI,[28],> 100 µM
same,TGI,[54],> 100 µM
same,TGI,[29],55.2 µM
same,TGI,[30],> 100 µM
same,TGI,[31],80 µM
same,TGI,[32],11.4 µM
same,TGI,[58],78 µM
same,TGI,[33],> 100 µM
same,TGI,[34],> 100 µM
same,TGI,[35],55 µM
same,TGI,[36],14.9 µM
same,TGI,[38],> 100 µM
same,TGI,[55],4.97 µM
same,TGI,[39],8.84 µM
same,TGI,[40],8.55 µM
same,TGI,[41],12 µM
same,TGI,[42],> 100 µM
same,TGI,[43],35.6 µM
same,TGI,[44],38.4 µM
same,TGI,[45],> 100 µM
same,TGI,[46],88.7 µM
same,TGI,[56],> 100 µM
same,TGI,[48],70.6 µM
same,TGI,[49],31.3 µM
same,TGI,[50],> 100 µM
same,TGI,[51],> 100 µM
same,TGI,[52],> 100 µM
same,TGI,[57],59.1 µM
